Source: ChEMBL document CHEMBL5247598 (Eur J Med Chem, 2022)
Activity calls are given as the source filed them. The calls are words filed in the database; no cut-off is given here.

Tests used:
[1] = system: NCI-ADR-RES; experiment: Inhibition of PI3K/AKT signaling pathway in human NCI-ADR-RES cells assessed as increase in Caspase-3 level at 3 uM incubated for 24 to 48 hrs in presence of doxorubicin by Western blot analysis; format: cell-based; conditions: time 24-48 hrs
[2] = system: HEK-293T; experiment: Cytotoxicity against human HEK293T cells assessed as inhibition of cell growth at 50 uM incubated for 48 hrs by MTT assay; format: toxicity, cell-based
[3] = system: NCI/ADR-RES; experiment: Induction of apoptosis in human NCI-ADR-RES cells assessed as viable cells at 3 uM incubated for 24 hrs by Annexin V-FITC and DAPI staining based flow cytometry (Rvb= 97.9 %); format: functional; conditions: read-out: Activity
[4] = target: ATP-dependent translocase ABCB1 (Homo sapiens, UniProt P08183); experiment: Effect on P-gp (unknown origin) ATPase activity assessed as increased ATP consumption using Mg-ATP as substrate preincubated for 5 min followed by Mg-ATP addition and measured after 40 mins by P-gp Glo luminescence assay
[5] = system: HCT-8; experiment: Antiproliferative activity against human Taxol resistant HCT-8 cells assessed as inhibition of cell growth at 50 uM incubated for 48 hrs by MTT assay; format: functional, cell-based
[6] = system: NCI/ADR-RES; experiment: Reversal of P-gp-mediated multidrug resistance in human NCI-ADR-RES cells assessed as change in ABCB1 expression level at 1 to 10 uM incubated for 24 hrs by Western blot analysis; format: functional, cell-based; conditions: dose 1-10 µM
[7] = system: NCI/ADR-RES; experiment: Reversal of P-gp-mediated multidrug resistance in human NCI-ADR-RES cells assessed as potentiation of doxorubicin-induced cytotoxicity incubated for 48 hrs by MTT assay; format: functional, cell-based
[8] = system: NCI/ADR-RES; experiment: Reversal of P-gp-mediated multidrug resistance in human NCI-ADR-RES cells assessed as change in ABCB1 expression level at 1 to 10 uM incubated for 24 hrs in presence of doxorubicin by Western blot analysis; format: functional, cell-based; conditions: dose 1-10 µM
[9] = system: NCI/ADR-RES; experiment: Induction of apoptosis in human NCI-ADR-RES cells assessed as viable cells at 3 uM incubated for 48 hrs by Annexin V-FITC and DAPI staining based flow cytometry (Rvb= 97.9 %); format: functional; conditions: read-out: Activity
[10] = system: NCI-ADR-RES; experiment: Inhibition of PI3K/AKT signaling pathway in human NCI-ADR-RES cells assessed as changes in caspase-6 level at 3 uM incubated for 24 to 48 hrs in presence of doxorubicin by Western blot analysis; format: cell-based; conditions: time 24-48 hrs
[11] = system: A549; experiment: Antiproliferative activity against human A549 cells assessed as inhibition of cell growth at 50 uM incubated for 48 hrs by MTT assay; format: functional, cell-based
[12] = system: NCI/ADR-RES; experiment: Antiproliferative activity against human multidrug resistant NCI-ADR-RES cells overexpressing P-gp assessed as reduction in cell viability incubated for 48 hrs by MTT assay; format: functional, cell-based

Sequence of ATP-dependent translocase ABCB1 (P08183 whole entry): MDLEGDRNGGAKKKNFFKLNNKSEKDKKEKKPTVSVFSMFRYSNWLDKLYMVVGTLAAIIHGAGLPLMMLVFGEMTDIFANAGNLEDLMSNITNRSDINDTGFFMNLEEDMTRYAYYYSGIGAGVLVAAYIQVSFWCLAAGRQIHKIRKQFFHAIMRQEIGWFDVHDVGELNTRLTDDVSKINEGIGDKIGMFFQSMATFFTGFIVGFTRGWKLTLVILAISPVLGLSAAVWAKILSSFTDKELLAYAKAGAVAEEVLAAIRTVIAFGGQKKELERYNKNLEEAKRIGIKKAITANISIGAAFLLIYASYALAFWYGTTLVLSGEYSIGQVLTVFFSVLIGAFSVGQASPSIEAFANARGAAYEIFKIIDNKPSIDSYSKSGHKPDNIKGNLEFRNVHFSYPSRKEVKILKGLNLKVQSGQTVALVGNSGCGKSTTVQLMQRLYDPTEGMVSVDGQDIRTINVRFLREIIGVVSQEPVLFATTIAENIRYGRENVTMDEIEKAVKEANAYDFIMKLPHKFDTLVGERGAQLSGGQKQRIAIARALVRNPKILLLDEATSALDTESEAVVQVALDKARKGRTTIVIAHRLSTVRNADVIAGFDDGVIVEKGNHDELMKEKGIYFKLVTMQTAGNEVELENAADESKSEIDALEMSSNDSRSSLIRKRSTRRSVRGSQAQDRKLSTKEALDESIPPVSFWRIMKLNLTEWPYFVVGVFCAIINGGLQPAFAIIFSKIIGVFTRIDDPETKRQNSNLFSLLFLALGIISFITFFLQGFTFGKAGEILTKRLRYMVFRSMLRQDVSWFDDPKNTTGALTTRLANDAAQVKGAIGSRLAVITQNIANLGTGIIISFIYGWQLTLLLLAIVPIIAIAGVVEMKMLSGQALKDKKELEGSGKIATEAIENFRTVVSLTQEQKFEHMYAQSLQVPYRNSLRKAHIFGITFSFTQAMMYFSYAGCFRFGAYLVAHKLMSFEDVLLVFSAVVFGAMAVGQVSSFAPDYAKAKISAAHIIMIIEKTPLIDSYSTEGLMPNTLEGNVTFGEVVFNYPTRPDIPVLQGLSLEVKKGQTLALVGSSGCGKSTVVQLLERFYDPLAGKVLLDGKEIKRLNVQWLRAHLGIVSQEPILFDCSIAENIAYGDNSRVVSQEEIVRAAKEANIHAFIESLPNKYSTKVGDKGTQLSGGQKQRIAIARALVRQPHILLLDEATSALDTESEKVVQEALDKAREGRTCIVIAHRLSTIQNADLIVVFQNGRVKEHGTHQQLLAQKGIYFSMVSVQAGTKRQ

EC50 [4]: 357 nM
Compound: C=C1[C@H](OC(C)=O)[C@@H](OC(C)=O)[C@@H](OC(C)=O)C(C)(C)/C=C/[C@H](C)[C@H](OC(=O)c2ccccc2)[C@@]2(O)C[C@@](C)(OC(=O)C(C)(C)C)[C@H](OC(C)=O)[C@@H]2[C@H]1OCC(C)C
inhibition [1]: Active | Activity [2]: Non-Toxic | viability at 3 µM [3]: 97.5% | Activity [5]: inactive | Activity [6]: inactive | EC50 [7]: 182 nM | Activity [8]: Active | viability at 3 µM [9]: 98.4% | inhibition [10]: inactive | Activity [11]: inactive | IC50 [12]: > 100000 nM
